Measurements: US11091482B2, “Isoxazolyl-carbonyloxy azabicyclo[3.2.1]octanyl compounds as FXR activators” (ARDELYX, INC., priority 2016, dated 2021)

How the values were obtained:
[1] = molecular target: ligand binding domain of human FXR (Homo sapiens (Human), UniProt Q96RI1); assay: FXR ligand binding assay (LanthaScreen FRET); details: for FXR pEC50 / % Efficacy: FXR ligand binding assay; for FXR pEC50: -log EC50; for Emax: read-out: % Efficacy; for % Efficacy: extent of activation relative to GW4064;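 as to all read-outs here: TR-FRET coactivator recruitment: ligand-induced binding of fluorescein-labelled SRC2-2 peptide to GST-tagged FXR LBD detected via Tb anti-GST antibody, serial compound dilutions, 3-parameter logistic fit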
ligand binding domain of human FXR, sequence (Q96RI1 262-486): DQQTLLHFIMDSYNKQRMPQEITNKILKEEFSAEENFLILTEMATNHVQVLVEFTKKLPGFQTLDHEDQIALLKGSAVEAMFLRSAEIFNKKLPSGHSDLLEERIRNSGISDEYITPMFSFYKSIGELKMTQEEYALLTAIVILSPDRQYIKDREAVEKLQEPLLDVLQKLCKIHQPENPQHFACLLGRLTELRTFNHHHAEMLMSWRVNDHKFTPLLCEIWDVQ

[2] = molecular target: human Farnesoid X receptor ligand-binding domain/Gal4 DNA binding domain chimera (Homo sapiens (Human), UniProt Q96RI1); assay: Cell-based FXR beta-lactamase reporter assay (FXR-UAS-bla HEK 293T cells); details: for FXR pEC50 / EC50 / % Efficacy: cellular FXR beta-lactamase reporter assay; for FXR pEC50 / EC50: -log EC50; for Emax: HEK-293T, read-out: % Efficacy; for EC50: read-out: FXR pEC50 (converted); for % Efficacy: extent of activation relative to GW4064
human Farnesoid X receptor ligand-binding domain/Gal4 DNA binding domain chimera, sequence (Q96RI1 262-486, stated change not applied): as the sequence (Q96RI1 262-486) above
Method: FXR activation was measured using a cell line and procedure obtained from Life Technologies (Cat #K1691). FXR-UAS-bla HEK 293T cells contain a human Farnesoid X receptor ligand-binding domain/Gal4 DNA binding domain chimera stably integrated into the CellSensor® UAS-bla HEK 293T cell line. The CellSensor® UAS-bla HEK 293T contains a beta-lactamase reporter gene under control of a UAS response element stably integrated into HEK 293T cells. Activation of FXR by bound ligands results in transcriptional activation of the beta-lactamase reporter gene, which is detected via assay of beta-lactamase activity. Cells are harvested and diluted into assay medium containing phenol red-free DMEM supplemented with 2% Charcoal-stripped FBS, pyruvate, non-essential amino acids. Cells are then transferred to a 384 well assay plate. Test compounds are dissolved in DMSO and a 3-fold serial dilution series is generated, then further diluted into assay medium. […] A FRET-based […] is loaded into cells as its acetomethoxy ester. Intracellular esterases liberate free CCF4, a cephalosporin core linking 7-hydroxycoumarin to fluorescein. In the presence of beta-lactamase activity produced in the presence of FXR agonists, cleavage of CCF4 spatially separates the two dyes and disrupts FRET, so that exciting the coumarin at 409 nm now produces a blue fluorescence signal at 447 nm. The change in FRET signal is plotted against the test compound concentration and fit to a 3-parameter logistical equation.

Structure (SMILES) | FXR pEC50 [1] | FXR pEC50 [2] | Emax [1] [%] | Emax [2] [%] | EC50 [2] [nM] | % Efficacy [1] [%] | % Efficacy [2] [%]
CC(C)(C)c1onc(-c2c(Cl)cccc2Cl)c1C(=O)OC1C[C@H]2CC[C@@H](C1)N2c1nc2c(F)cc(C(=O)O)cc2s1 (single isomer, unassigned) [Compound I-25] | 7.2 | 7.6 | – | – | – | – | –
CC1(c2onc(-c3c(Cl)cccc3Cl)c2C(=O)OC2C[C@H]3CC[C@@H](C2)N3c2nc3c(F)cc(C(=O)O)cc3s2)CC1 (single isomer, unassigned) [Compound I-26] | 7.4 | 7.5 | – | – | – | – | –
NC(=O)c1cc(F)c2nc(N3[C@@H]4CC[C@H]3C[C@@H](OC(=O)c3c(-c5c(Cl)cccc5Cl)noc3C3CC3)C4)sc2c1 [Compound I-3, (1R,3R,5S)-8-(6-carbamoyl-4-fluoro-1,3-benzothiazol-2-yl)-8-azabicyclo[3.2.1]octan-3-yl 5-cyclopropyl-3-(2,6-dichlorophenyl)-1,2-oxazole-4-carboxylate] | – | – | 60 | – | – | – | –
O=C(O)CNC(=O)c1cc(F)c2nc(N3[C@@H]4CC[C@H]3C[C@@H](OC(=O)c3c(-c5c(Cl)cccc5Cl)noc3C3CC3)C4)sc2c1 [Compound I-4, 2-({2-[(1R,3R,5S)-3-[5-cyclopropyl-3-(2,6-dichlorophenyl)-1,2-oxazole-4-carbonyloxy]-8-azabicyclo[3.2.1]octan-8-yl]-4-fluoro-1,3-benzothiazol-6-yl}formamido)acetic Acid] | – | – | 76 | 109 | 794 | – | –
O=C(NCCS(=O)(=O)O)c1cc(F)c2nc(N3[C@@H]4CC[C@H]3C[C@@H](OC(=O)c3c(-c5c(Cl)cccc5Cl)noc3C3CC3)C4)sc2c1 [Compound I-5, 2-({2-[(1R,3R,5S)-3-[5-cyclopropyl-3-(2,6-dichlorophenyl)-1,2-oxazole-4-carbonyloxy]-8-azabicyclo[3.2.1]octan-8-yl]-4-fluoro-1,3-benzothiazol-6-yl}formamido)ethane-1-sulfonic Acid] | – | – | 77 | 72 | 2510 | – | –
CS(=O)(=O)NC(=O)c1cc(F)c2nc(N3[C@@H]4CC[C@H]3C[C@@H](OC(=O)c3c(-c5c(Cl)cccc5Cl)noc3C3CC3)C4)sc2c1 [Compound I-6, (1R,3R,5S)-8-[4-fluoro-6-(methanesulfonylcarbamoyl)-1,3-benzothiazol-2-yl]-8-azabicyclo[3.2.1]octan-3-yl 5-cyclopropyl-3-(2,6-dichlorophenyl)-1,2-oxazole-4-carboxylate] | – | – | 110 | 109 | 15.8 | – | –
COc1cc2nc(N3[C@@H]4CC[C@H]3C[C@@H](OC(=O)c3c(-c5c(Cl)cccc5Cl)noc3C3CC3)C4)sc2cc1C(=O)O [Compound I-7, 2-[(1R,3R,5S)-3-[5-cyclopropyl-3-(2,6-dichlorophenyl)-1,2-oxazole-4-carbonyloxy]-8-azabicyclo[3.2.1]octan-8-yl]-5-methoxy-1,3-benzothiazole-6-carboxylic Acid] | – | – | 125 | 110 | 7.94 | – | –
COc1cc(C(=O)O)cc2sc(N3[C@@H]4CC[C@H]3C[C@@H](OC(=O)c3c(-c5c(Cl)cccc5Cl)noc3C3CC3)C4)nc12 [Compound I-8, 2-[(1R,3R,5S)-3-[5-Cyclopropyl-3-(2,6-dichlorophenyl)-1,2-oxazole-4-carbonyloxy]-8-azabicyclo[3.2.1]octan-8-yl]-4-methoxy-1,3-benzothiazole-6-carboxylic Acid] | – | – | 105 | 114 | 3.98 | – | –
O=C(O)c1cc(OC(F)(F)F)c2nc(N3[C@@H]4CC[C@H]3C[C@@H](OC(=O)c3c(-c5c(Cl)cccc5Cl)noc3C3CC3)C4)sc2c1 [Compound I-9, 2-[(1R,3R,5S)-3-[5-cyclopropyl-3-(2,6-dichlorophenyl)-1,2-oxazole-4-carbonyloxy]-8-azabicyclo[3.2.1]octan-8-yl]-4-(trifluoromethoxy)-1,3-benzothiazole-6-carboxylic Acid] | – | – | 136 | 119 | 3.16 | – | –
O=C(O)c1cc(C(F)(F)F)c2nc(N3[C@@H]4CC[C@H]3C[C@@H](OC(=O)c3c(-c5c(Cl)cccc5Cl)noc3C3CC3)C4)sc2c1 [Compound I-10, 2-[(1R,3R,5S)-3-[5-cyclopropyl-3-(2,6-dichlorophenyl)-1,2-oxazole-4-carbonyloxy]-8-azabicyclo[3.2.1]octan-8-yl]-4-(trifluoromethyl)-1,3-benzothiazole-6-carboxylic Acid] | – | – | 102 | 104 | 25.1 | – | –
Cc1cc(C(=O)O)cc2sc(N3[C@@H]4CC[C@H]3C[C@@H](OC(=O)c3c(-c5c(Cl)cccc5Cl)noc3C3CC3)C4)nc12 [Compound I-11, 2-[(1R,3R,5S)-3-[5-Cyclopropyl-3-(2,6-dichlorophenyl)-1,2-oxazole-4-carbonyloxy]-8-azabicyclo[3.2.1]octan-8-yl]-4-methyl-1,3-benzothiazole-6-carboxylic Acid] | – | – | 110 | 121 | 2.51 | – | –
O=C(O)c1cc(C2CC2)c2nc(N3[C@@H]4CC[C@H]3C[C@@H](OC(=O)c3c(-c5c(Cl)cccc5Cl)noc3C3CC3)C4)sc2c1 [Compound I-12, 2-[(1R,3R,5S)-3-[5-cyclopropyl-3-(2,6-dichlorophenyl)-1,2-oxazole-4-carbonyloxy]-8-azabicyclo[3.2.1]octan-8-yl]-4-(cyclopropyl)-1,3-benzothiazole-6-carboxylic Acid] | – | – | 125 | 112 | 7.94 | – | –
O=C(O)c1cc(F)c2nc(N3[C@@H]4CC[C@H]3C[C@@H](OC(=O)c3c(-c5ccccc5)noc3C3CC3)C4)sc2c1 [Compound I-13, 2-[(1R,3R,5S)-3-(5-Cyclopropyl-3-phenyl-1,2-oxazole-4-carbonyloxy)-8-azabicyclo[3.2.1]octan-8-yl]-4-fluoro-1,3-benzothiazole-6-carboxylic Acid] | 6.7 | 6 | – | – | – | 40 | 93
O=C(O)c1cc(F)c2nc(N3[C@@H]4CC[C@H]3C[C@@H](OC(=O)c3c(-c5ccccc5OC(F)(F)F)noc3C3CC3)C4)sc2c1 [Compound I-14, 2-[(1R,3R,5S)-3-{5-cyclopropyl-3-[2-(trifluoromethoxy)phenyl]-1,2-oxazole-4-carbonyloxy}-8-azabicyclo[3.2.1]octan-8-yl]-4-fluoro-1,3-benzothiazole-6-carboxylic Acid] | 7.6 | 8.1 | – | – | – | 147 | 116
COc1cc(C(=O)O)cc2sc(N3[C@@H]4CC[C@H]3C[C@@H](OC(=O)c3c(C56CCC(CC5)CC6)noc3C3CC3)C4)nc12 [Compound I-21, 2-[(1R,3R,5S)-3-(3-{bicyclo[2.2.2]octan-1-yl}-5-cyclopropyl-1,2-oxazole-4-carbonyloxy)-8-azabicyclo[3.2.1]octan-8-yl]-4-methoxy-1,3-benzothiazole-6-carboxylic Acid] | – | – | – | 44 | – | – | –
COc1cc2nc(N3[C@@H]4CC[C@H]3C[C@@H](OC(=O)c3c(C56CCC(CC5)CC6)noc3C3CC3)C4)sc2cc1C(=O)O [Compound I-22, 2-[(1R,3R,5S)-3-(3-{bicyclo[2.2.2]octan-1-yl}-5-cyclopropyl-1,2-oxazole-4-carbonyloxy)-8-azabicyclo[3.2.1]octan-8-yl]-5-methoxy-1,3-benzothiazole-6-carboxylic Acid] | – | – | – | 44 | 398 | – | –
Cn1c(N2[C@@H]3CC[C@H]2C[C@@H](OC(=O)Cc2c(-c4c(Cl)cccc4Cl)noc2C2CC2)C3)nc2c(F)cc(C(=O)O)cc21 [Compound I-33, 2-[(1R,3R,5S)-3-({2-[5-cyclopropyl-3-(2,6-dichlorophenyl)-1,2-oxazol-4-yl]acetyl}oxy)-8-azabicyclo[3.2.1]octan-8-yl]-4-fluoro-1-methyl-1H-1,3-benzodiazole-6-carboxylic Acid] | – | – | – | 72 | – | – | –
O=C(NS(=O)(=O)CCCO)c1ccc(N2[C@@H]3CC[C@H]2C[C@@H](OC(=O)c2c(-c4c(Cl)cccc4Cl)noc2C2CC2)C3)cc1 [Compound I-50, (1R,3R,5S)-8-{4-[(3-hydroxypropanesulfonyl)carbamoyl]phenyl}-8-azabicyclo[3.2.1]octan-3-yl 5-cyclopropyl-3-(2,6-dichlorophenyl)-1,2-oxazole-4-carboxylate] | – | – | – | 102 | 158 | – | –
O=C(O)c1cccc(S(=O)(=O)N2[C@@H]3CC[C@H]2C[C@@H](OC(=O)c2c(-c4c(Cl)cccc4Cl)noc2C2CC2)C3)c1 [Compound I-55, 3-{[(1R,3R,5S)-3-[5-cyclopropyl-3-(2,6-dichlorophenyl)-1,2-oxazole-4-carbonyloxy]-8-azabicyclo[3.2.1]octan-8-yl]sulfonyl}benzoic Acid] | – | – | – | 96 | 1000 | – | –
